Patent US20230189808A1, “SELECTIVE HERBICIDES BASED ON SUBSTITUTED ISOXAZOLIN CARBOXAMIDES AND FURILAZOLE” (Bayer Aktiengesellschaft, priority 2020, published 2023)

How the values were obtained:
ZEAMA Sileno [1] = assay: Safener seed treatment with pre-emergence herbicide application, crop damage test in greenhouse; assay type: in vivo, maize; set-up: key to Reduction [Difference]: difference in % crop damage (visual score vs untreated control); settings: for Reduction [%] / Reduction [Difference]: furilazole 0.25 g a.i./kg seed; for HER effect + SAF [%] / HER effect [%]: pre-emergence; for HER effect + SAF [%]: furilazole seed treatment 0.25 g a.i./kg seed; for HER effect [%]: % crop damage
Description: Seed Treatment; Pre-Emergence • A) Method Description
For the safener seed treatment, sufficient seeds of the respective crops (spring wheat, TRZAS; spring barley, HORVS; maize, ZEAMA) were weighed into screw top glass bottles approximately twice the volume of the seeds.
The specified safeners, formulated as wettable powder (WP) were weighed out so that the specified rates (g a·i·/kg seed) would be obtained, dissolved in water (1 ml water per 10 g of seeds), and added to the seeds to produce a slurry.
The bottles were capped and then placed in an overhead shaker (set at medium speed for ca. 60 minutes) so that the seeds were evenly coated with the slurry. The bottles were uncapped and the seeds were either placed on paper and dried for an interval of 3-4 hours prior to sowing, or directly sown. Seeds were placed in sandy loam soil in pots of a diameter of 7-8 cm, and covered with soil.
Pre-emergence application of the specified herbicides was done subsequently, on two sets of plants:
a) seed treatment with safener, as described above
The herbicides were formulated as WP and was sprayed onto the soil surface as an aqueous suspension at an equivalent water application rate of 300 1/ha.
After application, the test plants were kept in the greenhouse under good growth conditions. At intervals up to 4 weeks after application (=28 days after treatment; DAT), % crop damage observed on the treated plants was scored visually in comparison to control plants that had not received any safener or herbicide treatment.
Values in the table below are mean values of at least 2 replicates.
(§1) Plant Species, Variety: ZEAMA Sileno, Safener (SAF): Furilazole

ZEAMA Sileno [2] = assay: Tank-mix post-emergence crop damage and safener test in greenhouse; assay type: in vivo, maize; settings: final assessment
Description: Tank-Mix; Post-Emergence • A) Method Description
Seeds of crops (spring wheat, TRZAS; spring barley, HORVS; maize, ZEAMA) were placed in sandy loam soil in peat pots, covered with soil and cultivated in a greenhouse under good growth conditions. Two to three weeks after sowing, the test plants were treated at the 1 to 3-leaf stage. The herbicide/safener active compound combinations according to the invention, formulated as wettable powders or emulsion concentrates, and, in parallel tests, the correspondingly formulated individual active compounds were sprayed onto the green parts of the plants in various dosages using an amount of water of 300 1/ha (converted).
The pots were returned under good growing conditions in a glasshouse and a visual assessment of herbicidal effects was made at intervals from 1 to 3 weeks after herbicide application (DAT=days after treatment). Assessment was on a percentage basis in comparison with untreated control plants (0%=no injury, 100%=complete kill).
as §1

[3] = herbicide alone 40 g a.i./ha, 14 DAT
[4] = herbicide alone 40 g a.i./ha, 26 DAT
[5] = herbicide alone 80 g a.i./ha, 14 DAT
[6] = herbicide alone 80 g a.i./ha, 26 DAT

Compound | Reduction [%] (ZEAMA Sileno [1]; herbicide 40 g a.i./ha, 14 DAT) | Reduction [Difference] (ZEAMA Sileno [1]; herbicide 40 g a.i./ha, 14 DAT) | Reduction [%] (ZEAMA Sileno [1]; herbicide 40 g a.i./ha, 26 DAT) | Reduction [Difference] (ZEAMA Sileno [1]; herbicide 40 g a.i./ha, 26 DAT) | Reduction [%] (ZEAMA Sileno [1]; herbicide 80 g a.i./ha, 14 DAT) | Reduction [Difference] (ZEAMA Sileno [1]; herbicide 80 g a.i./ha, 14 DAT) | Reduction [%] (ZEAMA Sileno [1]; herbicide 80 g a.i./ha, 26 DAT) | Reduction [Difference] (ZEAMA Sileno [1]; herbicide 80 g a.i./ha, 26 DAT) | HER effect + SAF [%] (ZEAMA Sileno [1]; herbicide 40 g a.i./ha, 14 DAT) | HER effect + SAF [%] (ZEAMA Sileno [1]; herbicide 40 g a.i./ha, 26 DAT) | HER effect + SAF [%] (ZEAMA Sileno [1]; herbicide 80 g a.i./ha, 14 DAT) | HER effect + SAF [%] (ZEAMA Sileno [1]; herbicide 80 g a.i./ha, 26 DAT) | HER effect [%] (ZEAMA Sileno [1]; [3]) | HER effect [%] (ZEAMA Sileno [1]; [4]) | HER effect [%] (ZEAMA Sileno [1]; [5]) | HER effect [%] (ZEAMA Sileno [1]; [6]) | Reduction [%] (ZEAMA Sileno [2]; Reduction [Difference]*100/herbicide damage without safener, herbicide 32 g a.i./ha, furilazole 100 g a.i./ha) | Reduction [Difference] (ZEAMA Sileno [2]; herbicide damage without safener minus with safener, herbicide 32 g a.i./ha, furilazole 100 g a.i./ha) | HER effect + SAF [%] (ZEAMA Sileno [2]; post-emergence tank-mix, herbicide 32 g a.i./ha + furilazole 100 g a.i./ha) | HER effect [%] (ZEAMA Sileno [2]; post-emergence, herbicide alone 32 g a.i./ha, visual crop injury (0%=no injury, 100%=complete kill))
C=CC1(C(=O)NC2COC(C(=O)OC)C2)CC(c2cc(F)cc(F)c2)=NO1 (mixture of isomers) [Example 1.68] | 73% | 68 | 79% | 75 | 38% | 37 | 40% | 40 | 25% | 20% | 60% | 60% | 93% | 95% | 97% | 100% | – | – | – | –
COCCOC(=O)C1C=CC(NC(=O)C2(C(F)(F)F)CC(c3cc(F)cc(C#N)c3)=NO2)C1 (centres unmarked) [Example 1.2] | 63% | 25 | – | – | 100% | 45 | – | – | 15% | – | 0% | – | 40% | – | 45% | – | – | – | – | –
COCCOC(=O)C1C=CC(NC(=O)C2(C)CC(c3cc(Cl)cc(C#N)c3)=NO2)C1 (centres unmarked) [Example 1.5] | – | – | – | – | 33% | 20 | 67% | 30 | – | – | 40% | 15% | – | – | 60% | 45% | – | – | – | –
CSCCOC(=O)C1C=CC(NC(=O)C2(C(F)(F)F)CC(c3cc(F)cc(F)c3)=NO2)C1 (centres unmarked) [Example 1.7] | 34% | 28 | – | – | – | – | – | – | 55% | – | – | – | 83% | – | – | – | – | – | – | –
C=CC1(C(=O)NC2C=CC(C(=O)OC)C2)CC(c2cc(F)cc(F)c2)=NO1 (centres unmarked) [Example 1.26] | – | – | 80% | 40 | 79% | 55 | 86% | 60 | – | 10% | 15% | 10% | – | 50% | 70% | 70% | 61% | 57 | 37% | 94%
CN(C)C(=O)SCCOC(=O)C1C=CC(NC(=O)C2(C)CC(c3cc(F)cc(F)c3)=NO2)C1 (centres unmarked) [Example 1.29] | – | – | – | – | 50% | 30 | – | – | – | – | 30% | – | – | – | 60% | – | – | – | – | –
CC1(C(=O)NC2C=CC(C(=O)O)C2)CC(c2cc(F)cc(F)c2)=NO1 (centres unmarked) [Example 1.36] | – | – | – | – | 40% | 33 | – | – | – | – | 50% | – | – | – | 83% | – | – | – | – | –
COC(=O)C1=C[C@@H](NC(=O)[C@@]2(C)CC(c3cc(F)cc(F)c3)=NO2)CC1 [Example 1.63] | 50% | 30 | 100% | 25 | – | – | – | – | 30% | 0% | – | – | 60% | 25% | – | – | – | – | – | –
C=CC1(C(=O)NC2COC(C(=O)OC)C2)CC(c2cc(F)cc(F)c2)=NO1 (centres unmarked) [Example 1.69] | 37% | 35 | – | – | – | – | – | – | 60% | – | – | – | 95% | – | – | – | – | – | – | –
C=CC1(C(=O)NC2COC(C(=O)OC)C2)CC(c2cc(F)cc(F)c2)=NO1 (centres unmarked) [Example 1.70] | 44% | 35 | 24% | 20 | 58% | 55 | 63% | 60 | 45% | 65% | 40% | 35% | 80% | 85% | 95% | 95% | – | – | – | –
C=CC1(C(=O)NC2C=C(C(=O)OC)OC2)CC(c2cc(C)cc(C)c2)=NO1 (centres unmarked) [Example 1.90] | – | – | – | – | 80% | 20 | 100% | 30 | – | – | 5% | 0% | – | – | 25% | 30% | – | – | – | –
COC(=O)[C@H]1OCC[C@@H]1NC(=O)[C@@]1(C)CC(c2cc(F)cc(F)c2)=NO1 [Example 1.92] | 100% | 75 | 86% | 60 | – | – | – | – | 0% | 10% | – | – | 75% | 70% | – | – | – | – | – | –
